Here are results for 4 molecules from US20260193173A1, “AMINO ACID-BENZOIC ACID OLIGOMERS AND METHODS OF USE THEREOF FOR TREATING CANCER” (Board of Regents, The University of Texas System, priority 2022, published 2026).

Assay [1] deals with DU145 prostate cancer cells. The assay is described as follows: MTT assay, growth inhibition of prostate cancer cell line DU145. It is filed as cell-based. The conditions noted are these: Homo sapiens, DU-145, incubated with DU145 cells for 72 hours. Here is the method:
FIGS. 3A-3C show % inhibition (determined by MTT assay) of disclosed compounds on prostate cancer cell line DU145. Compounds were incubated with DU145 cells for 72 hours, showing strong cell growth inhibition with IC50 of 0.15-0.7 μM.

The target in a further assay is Bcl-2 (Homo sapiens, UniProt P10415). The assay is described as follows: Bcl-2 protein binding, fluorescence polarization assay. An excerpt:
IC50 values were in the submicromolar range as determined by fluorescence polarization assay.
(In general: Fluorescence polarisation rises when a labelled molecule tumbles more slowly, as on binding a larger partner.)

Chain of Bcl-2 (P10415 whole entry): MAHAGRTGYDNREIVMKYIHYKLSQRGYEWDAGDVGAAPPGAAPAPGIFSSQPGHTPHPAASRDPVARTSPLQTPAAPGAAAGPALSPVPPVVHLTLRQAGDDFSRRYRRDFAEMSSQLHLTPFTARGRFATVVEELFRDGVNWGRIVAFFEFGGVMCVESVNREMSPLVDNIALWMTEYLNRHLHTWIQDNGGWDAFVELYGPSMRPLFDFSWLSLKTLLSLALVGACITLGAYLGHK

Take `CC(C)COc1cc(C(=O)NC(CS)C(=O)Nc2ccc(C(=O)NC(Cc3ccccc3)C(=O)Nc3ccc(C(N)=O)cc3OCC(C)C)cc2OCC(C)C)ccc1N` (centres unmarked) [Compound B11]: the results for the IC50 (in assay [1]; on Bcl-2) were 120 nM and 1080 nM, respectively.
For the molecule `COc1cc(C(=O)NC(Cc2ccc(O)cc2)C(=O)Nc2ccc(C(=O)NC(CCSC)C(=O)Nc3ccc(C(N)=O)cc3OCc3ccccc3)cc2OCC(C)C)ccc1N` (centres unmarked) [Compound B12], the IC50 is 702 nM in assay [1] and 599 nM on Bcl-2.
With `CCC(C)C(NC(=O)c1ccc(N)c(OC)c1)C(=O)Nc1ccc(C(=O)NC(CCSC)C(=O)Nc2ccc(C(N)=O)cc2OCC(C)C)cc1OCC(C)C` (centres unmarked) [Compound B10], the figures for the IC50 (in assay [1]; on Bcl-2) were 779 nM and 1960 nM, respectively.
With `CCC(C)C(NC(=O)c1ccc(NC(=O)C(NC(=O)c2ccc(N)c(OC)c2)C(C)CC)c(OCC(C)C)c1)C(=O)Nc1ccc(C(N)=O)cc1OCc1ccccc1` (centres unmarked) [Compound B9], the IC50 in assay [1] came to 300 nM; at Bcl-2, 1540 nM.

What is called IC50 is the concentration that inhibits the measured activity by half. High values mean weaker potency in that assay, low ones greater potency in that assay.
